Source: US7888510B2, “2-′4(phenylamino)-piperidin-1-yl!-n-phenyl-acetamine derivatives and related compounds as neuropeptide Y5 (NPY5) ligands for the treatment of obesity” (Laboratorios del Dr. Esteve S.A., priority 2003, dated 2011)
Where a name gives a salt, the structure may show the parent alone.

test system: not given; test: not given; conditions: not given

Compound | melting point [°C]
O=C(CN1CCC(Nc2ccccc2CO)CC1)Nc1ccc2c(c1)CCC2=O | 138 to 140
COC(=O)c1ccccc1NC1CCN(CC(=O)Nc2ccc3c(c2)-c2ccccc2C3=O)CC1.Cl | 258

Continued, values first:

melting point [°C] | Compound
133 | Cc1cccc(CO)c1NC1CCN(CC(=O)Nc2ccc3c(c2)-c2ccccc2C3O)CC1 (stereo not drawn) [Example 5a, N-(9-Hydroxy-9H-fluoren-3-yl)-2-[4-(2-hydroxymethyl-6-methyl-phenylamino)-piperidin-1-yl]-acetamide]
128 | Cc1ccc(NC2CCN(CC(=O)Nc3ccccc3)CC2)c(CO)c1 [Example 7a, 2-[4-(2-Hydroxymethyl-4-methyl-phenylamino)-piperidin-1-yl]-N-phenyl-acetamide]
113 | Cc1cccc(CO)c1NC1CCN(CC(=O)Nc2ccc3c(c2)-c2ccccc2C3=O)CC1 [Example 3a, 2-[4-(2-Hydroxymethyl-6-methyl-phenylamino)-piperidin-1-yl]-N-(9-oxo-9H-fluoren-3-yl)-acetamide]
124 | Cc1ccc(NC2CCN(CC(=O)Nc3ccc4c(c3)-c3ccccc3C4O)CC2)c(CO)c1 (stereo not drawn) [Example 4a, N-(9-Hydroxy-9H-fluoren-3-yl)-2-[4-(2-hydroxymethyl-4-methyl-phenylamino)-piperidin-1-yl]-acetamide]
152 | Cc1ccc(NC2CCN(CC(=O)Nc3ccc4c(c3)-c3ccccc3C4=O)CC2)c(CO)c1 [Example 2a, 2-[4-(2-Hydroxymethyl-4-methyl-phenylamino)-piperidin-1-yl]-N-(9-oxo-9H-fluoren-3-yl)-acetamide]

molecular target: T1, rat Y5 receptor (Rattus norvegicus, UniProt Q63634); test: Neuropeptide Y5 receptor binding ([125I]-PYY displacement, membranes of transfected C6 cells); conditions: 10^−6 M; membranes of C6 cells transfected with the rat Y5 receptor; radioligand [125I]-PYY 100 pM
T1 construct: expressed in transfected cells; host or cells: C6 cells (membrane preparation)
T1 sequence (Q63634 1-445): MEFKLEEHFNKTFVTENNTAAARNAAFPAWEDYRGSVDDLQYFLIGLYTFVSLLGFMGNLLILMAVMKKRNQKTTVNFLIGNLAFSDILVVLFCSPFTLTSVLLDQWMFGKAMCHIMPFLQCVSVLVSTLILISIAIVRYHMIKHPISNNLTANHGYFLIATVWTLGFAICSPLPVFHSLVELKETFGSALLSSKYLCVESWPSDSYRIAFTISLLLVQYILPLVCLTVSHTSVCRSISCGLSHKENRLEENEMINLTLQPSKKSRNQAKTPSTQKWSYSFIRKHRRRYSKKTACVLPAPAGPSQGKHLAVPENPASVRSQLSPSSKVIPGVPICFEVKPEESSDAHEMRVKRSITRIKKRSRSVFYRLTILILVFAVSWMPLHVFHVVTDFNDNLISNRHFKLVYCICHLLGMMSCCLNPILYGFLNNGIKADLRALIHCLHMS
Experimental: Neuropeptide Y5 Receptor Binding Studies:
The methods used for membrane preparation and binding are similar to those described by Y. Hu, B. T. Bloomquist et al. in Y. Hu, B. T. Bloomquist et al., The Journal of Biological Chemistry, 1996, 271, 26315-26319 with modifications. Said literature description is herewith incorporated by reference and forms part of the disclosure. Cells C6 were transfected with the rat Y5 receptor. The cells were grown under standard culture conditions in 150 cm^2 dishes and they were harvested using a rubber scraper and 10 ml PBS. The cells from five dishes were collected and centrifuged 2.500 g for 5 min (4° C.). The pellet was washed by resuspending in 3 ml buffer (Tris-HCl 10 mM, pH 7.4), homogenized using a Potter S homogenizer, 10 strokes at 600 rpm and centrifuged 48.000 g for 20 min (4° C.). The pellet was resuspended in 8 ml membrane buffer (Tris-HCl 25 mM, NaCl 120 mM, KCl 5 mM, KH2PO4 1.2 mM, CaCl2 2.5 mM, MgSO4 1.2 mM, BSA 0.15 mg/ml, Bacitracine 0.5 mg/ml, pH 7.4) and rehomogenized using the Potter S, 10 strokes at 600 rpm. The protein concentration in the incubation was […]. The radioligand was [^125I]-PYY (100 pM) in a total incubation volume of 200 μl. Following incubation at 25° C. for 2 h, the reaction was stopped by addition of 5 ml ice-cold buffer (Tris-HCl 25 mM, NaCl 120 mM, KCl 5 mM, KH2PO4 1.2 mM, CaCl2 2.5 mM, MgSO4 1.2 mM, pH 7.4) and rapid filtration in a Harvester Brandell Cell using filters (Schleicher & Schuell GF 3362) pretreated for two hours with 0.5% polyethyleneimine. Filters were washed one time with 5 ml ice-cold buffer. The filters were placed into plastic scintilation vials and 5 ml scintilation cocktail Ecoscint H were added. The quantity of radioactivity present was determined in a Wallac Winspectral 1414 counter. Non specific binding was determined in the presence of 1 μM de pNPY. All binding assays were done in triplicate.

inhibition at 1 µM [%] | Compound
82.3 | Cc1ccc(NC2CCN(CC(=O)Nc3ccc4ncccc4c3)CC2)c(CO)c1 [Example 7, 2-[4-(2-Hydroxymethyl-4-methyl-phenylamino)-piperidin-1-yl]-N-quinolin-6-yl-acetamide]
73.9 | Cc1cccc(CO)c1NC1CCN(CC(=O)Nc2ccc3ncccc3c2)CC1 [Example 11, 2-[4-(2-Hydroxymethyl-6-methyl-phenylamino)-piperidin-1-yl]-N-quinolin-6-yl-acetamide]
88.9 | Cc1ccc(NC2CCN(CC(=O)Nc3ccc(C(=O)c4ccccc4)cc3)CC2)c(CO)c1 [Example 14, N-(4-Benzoyl-phenyl)-2-[4-(2-hydroxymethyl-4-methyl-phenylamino)-piperidin-1-yl]-acetamide]
80.4 | Cc1cccc(CO)c1NC1CCN(CC(=O)Nc2cnc3ccccc3c2)CC1 [Example 9, 2-[4-(2-Hydroxymethyl-6-methyl-phenylamino)-piperidin-1-yl]-N-quinolin-3-yl-acetamide]
81.5 | O=C(CN1CCC(Nc2ccccc2CO)CC1)Nc1ccc(C(=O)c2ccccc2)cc1 [Example 13, N-(4-Benzoyl-phenyl)-2-[4-(2-hydroxymethyl-phenylamino)-piperidin-1-yl]-acetamide]
93.2 | Cc1cccc(CO)c1NC1CCN(CC(=O)Nc2ccc(C(=O)c3ccccc3)cc2)CC1 [Example 15, N-(4-Benzoyl-phenyl)-2-[4-(2-hydroxymethyl-6-methyl-phenylamino)-piperidin-1-yl]-acetamide]
86.2 | Cc1ccc(NC2CCN(CC(=O)Nc3cnc4ccccc4c3)CC2)c(CO)c1 [Example 5, 2-[4-(2-Hydroxymethyl-4-methyl-phenylamino)-piperidin-1-yl]-N-quinolin-3-yl-acetamide]

same assay, conditions: membranes of C6 cells transfected with the rat Y5 receptor; radioligand [125I]-PYY 100 pM; 25° C., 2 h

IC50 [nM] | Compound
50 | CCn1c2ccccc2c2cc(NC(=O)CN3CCC(Nc4c(C)cccc4CO)CC3)ccc21 [Example 1a, N-(9-Ethyl-9H-carbazol-3-yl)-2-[4-(2-hydroxymethyl-6-methyl-phenylamino)-piperidin-yl]acetamide dihydrochloride]
40.1 | Cc1cccc(CO)c1NC1CCN(CC(=O)Nc2ccc3c(c2)-c2ccccc2C3O)CC1 (stereo not drawn) [Example 5a, N-(9-Hydroxy-9H-fluoren-3-yl)-2-[4-(2-hydroxymethyl-6-methyl-phenylamino)-piperidin-1-yl]-acetamide]
36.3 | Cc1cccc(CO)c1NC1CCN(CC(=O)Nc2ccc3c(c2)-c2ccccc2C3=O)CC1 [Example 3a, 2-[4-(2-Hydroxymethyl-6-methyl-phenylamino)-piperidin-1-yl]-N-(9-oxo-9H-fluoren-3-yl)-acetamide]
80.9 | Cc1ccc(NC2CCN(CC(=O)Nc3ccc4c(c3)-c3ccccc3C4=O)CC2)c(CO)c1 [Example 2a, 2-[4-(2-Hydroxymethyl-4-methyl-phenylamino)-piperidin-1-yl]-N-(9-oxo-9H-fluoren-3-yl)-acetamide]
